Data published in the CheMixHub ionic liquid set.
± gives the uncertainty stated by the source.

Experiment: xn = mol fraction of the nth substance listed
Conditions: 100 kPa

C[NH2+]CCC=C1c2ccccc2CCc2ccccc21.[Cl-] + CC[n+]1ccn(C)c1.[Br-] + O
viscosity [mPa·s]
Conditions	288.15 K	298.15 K
x1 = 0.0001985, x2 = 0.0001801	1.149 ± 0.044	0.92 ± 0.043
x1 = 0.0002171, x2 = 0.0007201	1.157 ± 0.044	0.927 ± 0.043
x1 = 0.0002197, x2 = 0.00126	1.164 ± 0.044	0.936 ± 0.043
x1 = 0.0005409, x2 = 0.0001801	1.158 ± 0.044	0.928 ± 0.043
x1 = 0.00056, x2 = 0.001259	1.173 ± 0.044	0.944 ± 0.043
x1 = 0.0005649, x2 = 0.0007199	1.166 ± 0.044	0.935 ± 0.043
x1 = 0.0009071, x2 = 0.0007196	1.176 ± 0.044	0.944 ± 0.043
x1 = 0.0009111, x2 = 0.00018	1.168 ± 0.044	0.936 ± 0.043
x1 = 0.0009287, x2 = 0.001259	1.183 ± 0.044	0.952 ± 0.043
x1 = 0.001275, x2 = 0.001258	1.194 ± 0.044	0.962 ± 0.043
x1 = 0.001279, x2 = 0.0001799	1.179 ± 0.044	0.945 ± 0.043
x1 = 0.001292, x2 = 0.0007194	1.187 ± 0.044	0.953 ± 0.043
x1 = 0.001649, x2 = 0.0007191	1.199 ± 0.044	0.963 ± 0.043
x1 = 0.001657, x2 = 0.0001799	1.19 ± 0.044	0.954 ± 0.043
x1 = 0.001661, x2 = 0.001258	1.206 ± 0.044	0.972 ± 0.043
x1 = 0.002001, x2 = 0.0001798	1.201 ± 0.044	0.964 ± 0.043
x1 = 0.002028, x2 = 0.0007188	1.211 ± 0.044	0.974 ± 0.043
x1 = 0.002029, x2 = 0.001257	1.218 ± 0.044	0.982 ± 0.043
x1 = 0.002358, x2 = 0.0001797	1.213 ± 0.044	0.975 ± 0.043
x1 = 0.002375, x2 = 0.001257	1.231 ± 0.044	0.993 ± 0.043
x1 = 0.002379, x2 = 0.0007186	1.223 ± 0.044	0.984 ± 0.043
x1 = 0.002737, x2 = 0.0001797	1.226 ± 0.044	0.986 ± 0.043
x1 = 0.002745, x2 = 0.001256	1.244 ± 0.044	1.004 ± 0.043
x1 = 0.002757, x2 = 0.0007183	1.236 ± 0.044	0.994 ± 0.043
x1 = 0.00309, x2 = 0.001256	1.258 ± 0.044	1.015 ± 0.043
x1 = 0.003104, x2 = 0.0001796	1.24 ± 0.044	0.997 ± 0.043
x1 = 0.003108, x2 = 0.000718	1.249 ± 0.044	1.005 ± 0.043
x1 = 0.003467, x2 = 0.0001795	1.255 ± 0.044	1.008 ± 0.043
x1 = 0.003489, x2 = 0.0007178	1.263 ± 0.044	1.016 ± 0.043
x1 = 0.00349, x2 = 0.001255	1.272 ± 0.044	1.026 ± 0.043
